Assay results published in US20250295639A1, “METHODS FOR TREATING HEART DISEASES” (Cytokinetics, Incorporated, priority 2024, published 2025).
Where “and” joins values, the source holds several entries; their conditions need not be identical. Equal values may be shown once.

Test system: patients with symptomatic oHCM
Experiment: SEQUOIA-HCM: cardiopulmonary exercise testing (CPET), incl. by baseline beta blocker use
Type: in vivo, human
Text: The primary objective of this trial was to evaluate the effect of aficamten on exercise capacity in patients with symptomatic oHCM. The indicated endpoint was a change in peak oxygen uptake (pVO2) by cardiopulmonary exercise testing (CPET) from baseline to Week 24. A further secondary objective was to evaluate the effect of aficamten on exercise capacity, as determined by change in total workload during CPET from baseline to Week 24. A further exploratory objective of this trial was to evaluate the effect of aficamten on other CPET parameters, as determined by changes from baseline to Week 24 in: (1) ventilator efficiency (VE/VCO2 slope); (2) circulatory power (VO2× systolic BP); and (3) ventilator anaerobic threshold (VAT). Cardiopulmonary Exercise Testing (CPET). All patients underwent CPET with gas-exchange analysis and the methodology will be standardized across all participating sites, as described in the CPET manual. Testing included continuous ECG monitoring by trained personnel and was performed in an area that was equipped for cardiopulmonary resuscitation. Treadmill was the preferred modality for exercise testing. […] Exercise protocols for both modalities were provided in the CPET manual. Patients had to use the same testing modality for all exercise tests during the trial. Whenever possible, CPET was administered by the same trial personnel using the same equipment and performed after the other trial procedures on that visit day (including echocardiogram, KCCQ, EQ-5D-5L, CGI, PGI-C, NYHA class, SAQ-7, vital signs, ECG, blood sampling, IP administration). Patients naïve to exercise protocols were familiarized with the technique during screening. All CPET testing was symptom-limited and patients were strongly encouraged to achieve maximal exertion and an RER ≥1.05. The reason(s) for termination of sub-maximal exercise tests were documented. A test was identified as being maximal effort if the RER is ≥1.05. The Week 24 CPET was performed at approximately the same time of day (eg, morning, mid-day, afternoon) as the baseline CPET at screening, at a consistent time after the last dose of beta blocker and IP. Whenever possible, patients performed exercise testing between three and ten hours after taking beta blocking agents. CPET End Points. We looked at whether aficamten would improve a novel measure of integrated exercise performance that combines complementary measures previously independently related to oHCM prognosis, and that incorporates both submaximal and maximal exercise capacity. A primary outcome was the change from baseline to week 24 in integrated exercise performance, defined as the 2-component Z-score of pVO2 and ventilatory efficiency (VE/VCO2 slope). Response rates for achieving clinically meaningful thresholds for change in pVO2 and correlations with clinical measures of treatment effect (health status, echocardiographic, cardiac biomarkers) were also assessed. The primary analysis was the change from baseline to Week 24 in integrated exercise performance, normalized to a composite of Z-scores for pVO2 and VE/VCO2 slope to capture physiologic responses to maximal and submaximal exercise. The Z-score was derived by reversing the directionality of VE/VCO2 slope such that increases in both Z-score components indicate benefit and equal weights were used for each Z-score component. Secondary end points included assessments for changes from baseline to week 24 in CPET-derived measures during 2 phases of exercise performance: (1) peak exercise (pVO2, peak workload, peak metabolic equivalents [METS], peak circulatory power [VO2× systolic blood pressure], exercise duration, peak respiratory exchange ratio [RER], heart rate reserve, peak heart rate, O2 pulse at peak exercise, proportionate pulse pressure); and (2) during submaximal exercise (pre-anaerobic threshold VE/VCO2 slope, VE/VCO2 slope throughout exercise, ventilatory power, ventilatory anaerobic threshold, and aerobic efficiency). Beta Blocker Co-administration. […]

[1] = Baseline Beta Blocker Use: Yes, Baseline
[2] = Baseline Beta Blocker Use: Yes, Week 24
[3] = aficamten versus placebo, 24 weeks
[4] = patients treated with aficamten

CCc1nc(-c2ccc3c(c2)CC[C@H]3NC(=O)c2cnn(C)c2)no1 [aficamten, (R)—N-(5-(5-ethyl-1,2,4-oxadiazol-3-yl)-2,3-dihydro-1H-inden-1-yl)-1-methyl-1H-pyrazole-4-carboxamide]
peak METs (pVO2/3.5 (mL/kg/min)) on CPET, Week 24, Median (Baseline Beta Blocker Use: No, Week 24): 5.66 METs
Change in Exercise Duration on CPET from Baseline to Week 24, LS Mean (SE) (Baseline Beta Blocker Use: Yes): 1.0 (0.22) minutes
Change in Exercise Duration on CPET from Baseline to Week 24, LS Mean Diff vs. Placebo (SE) (Baseline Beta Blocker Use: Yes): 0.9 (0.30) minutes
Change in Exercise Duration on CPET from Baseline to Week 24, Mean (SD) (Baseline Beta Blocker Use: Yes): 1.1 (1.98) minutes
Change in Exercise Duration on CPET from Baseline to Week 24, Median (Baseline Beta Blocker Use: Yes): 0.5 min
Change in peak METs from Baseline to Week 24, LS Mean (SE) (Baseline Beta Blocker Use: Yes): 0.40 (0.093) METs
Change in peak METs from Baseline to Week 24, LS Mean Diff vs. Placebo (SE) (Baseline Beta Blocker Use: Yes): 0.46 (0.130) METs
Change in peak METs from Baseline to Week 24, Mean (SD) (Baseline Beta Blocker Use: Yes): 0.41 (0.781) METs
Change in peak METs from Baseline to Week 24, Median (Baseline Beta Blocker Use: Yes): 0.31 METs
Exercise Duration on CPET, Baseline, Mean (SD) [1]: 11.4 (2.55) minutes
Exercise Duration on CPET, Baseline, Median [1]: 11.1 min
peak METs (pVO2/3.5 (mL/kg/min)) on CPET, Baseline, Mean (SD) [1]: 5.24 (1.251) METs
peak METs (pVO2/3.5 (mL/kg/min)) on CPET, Baseline, Median [1]: 5.28 METs
Exercise Duration on CPET, Week 24, Mean (SD) [2]: 12.5 (3.61) minutes
Exercise Duration on CPET, Week 24, Median [2]: 12.4 min
peak METs (pVO2/3.5 (mL/kg/min)) on CPET, Week 24, Mean (SD) [2]: 5.70 (1.497) METs
peak METs (pVO2/3.5 (mL/kg/min)) on CPET, Week 24, Median [2]: 5.64 METs
patients with large pVO2 deteriorations/reductions (≥3.0 mL/kg/min) (aficamten group, 24 weeks): 2%
Any Deterioration in pVO2, NNT [3]: −3.8
Any Deterioration in pVO2, OR [3]: 0.32
Any Deterioration in pVO2, Risk Difference [3]: −26%
Any Improvement in pVO2, NNT [3]: 3.8 and < 4
Any Improvement in pVO2, OR [3]: 3.09
Any Improvement in pVO2, Risk Difference [3]: +26%
Large Improvement in pVO2, NNT [3]: 6.3
Large Improvement in pVO2, OR [3]: 2.44
Large Improvement in pVO2, Risk Difference [3]: +15.%
Moderate/Large Improvement in pVO2, NNT [3]: 4.7
Moderate/Large Improvement in pVO2, OR [3]: 2.44
Moderate/Large Improvement in pVO2, Risk Difference [3]: +21%
Any Improvement in pVO2, NNT (aficamten versus placebo, 24 weeks, listed as Aficamten): 3.8
Aerobic efficiency, Adjusted difference (LS mean treatment difference) (aficamten vs placebo, week 24): 0.2 mL/min/watt
Exercise duration, Adjusted difference (LS mean treatment difference) (aficamten vs placebo, week 24): 1.0 min
Heart rate reserve, Adjusted difference (LS mean treatment difference) (aficamten vs placebo, week 24): 6
Integrated 2 component Z-score metric, Adjusted difference (LS mean treatment difference) (aficamten vs placebo, week 24): +0.35
O2 pulse at peak exercise, Adjusted difference (LS mean treatment difference) (aficamten vs placebo, week 24): 0.003 mL/beat
Peak circulatory power, Adjusted difference (LS mean treatment difference) (aficamten vs placebo, week 24): 586 mmHg*mL/min/kg
Peak heart rate, Adjusted difference (LS mean treatment difference) (aficamten vs placebo, week 24): 9 beats/min
Peak respiratory exchange ratio, Adjusted difference (LS mean treatment difference) (aficamten vs placebo, week 24): 0.00
Peak workload, Adjusted difference (LS mean treatment difference) (aficamten vs placebo, week 24): 12 watt
Proportionate pulse pressure (peak), Adjusted difference (LS mean treatment difference) (aficamten vs placebo, week 24): 0.01
Proportionate pulse pressure (rest), Adjusted difference (LS mean treatment difference) (aficamten vs placebo, week 24): −0.01
Ventilatory anaerobic threshold, Adjusted difference (LS mean treatment difference) (aficamten vs placebo, week 24): 59 mL
Ventilatory efficiency pre-anaerobic threshold (VE/VCO2 slope), Adjusted difference (LS mean treatment difference) (aficamten vs placebo, week 24): −1.5
Ventilatory efficiency throughout exercise (VE/VCO2 slope), Adjusted difference (LS mean treatment difference) (aficamten vs placebo, week 24): −2.3
Ventilatory power, Adjusted difference (LS mean treatment difference) (aficamten vs placebo, week 24): 0.9 mmHg
pVO2, Adjusted difference (LS mean treatment difference) (aficamten vs placebo, week 24): 1.7 mL/kg/min
Integrated 2 component Z-score metric, Adjusted difference (LS mean treatment difference) (aficamten vs placebo, week 24, listed as Aficamten): 0.35
improvement in Exercise Duration on CPET: influence of beta blockers (baseline to Week 24): not significantly diminished by the use of beta blockers
improvement in peak metabolic equivalents (peak METs) on CPET: influence of beta blockers (baseline to Week 24): not significantly diminished by the use of beta blockers
times less likely to experience worsening of pVO2 than those on placebo (categorical threshold analyses): more than 5 times
patients who experienced an improvement in pVO2 [4]: 72.2%
patients with large improvement (≥3.0 mL/kg/min) in pVO2 [4]: 27.8%
patients with moderate improvement (≥1.5 to <3.0 mL/kg/min) in pVO2 [4]: 21.8%
patients with small improvement (0 to <1.5) in pVO2 [4]: 22.6%
LSM difference in pVO2 (95% CI) (patients who were also on beta blockers): 1.6 (0.7 to 2.5) mL/kg/min
LSM difference in pVO2 (95% CI) (patients who were not on beta blockers): 1.9 (0.8 to 3.1) mL/kg/min
